What was measured:
HBV = test: HBV-DNA antiviral assay using HepG2.117 cells; type: cell-based, HBV genotype D; settings: Hepatitis B virus, HepG2.117, 72 h
Description: (§1) The following assay procedure describes the HBV antiviral assay, using HepG2.117 cells, which carry a stably integrated genotype D HBV genome under the control of a Tet-off promoter, and intracellular HBV DNA quantification as endpoint. Cell viability is assessed in parallel by measuring the intracellular ATP content using CellTiter-Glo 2.0 (Promega).
On day 0, HepG2.117 cells (which are maintained in routine cell culture with doxycycline present in the medium at a final concentration of 1 μg/mL) are seeded in 96-well plates (white with clear bottom) at a density of 2.0×10^4 cells/well (0.1 mL/well) in medium without doxycycline to induce pgRNA transcription and subsequent formation of HBV particles. The cells are incubated at 37° C. and 5% CO2.
(§2) On day 1, medium is removed from each well, the test articles are diluted in culture medium without doxcycyline and 100 μL was added to cell culture wells (9 concentrations, 4-fold dilution). For each plate, 6 untreated (merely DMSO) wells are included. The final concentration of DMSO in the culture medium is 2%. Each plate is prepared in duplicate (one for HBV DNA extraction, one for CellTiter-Glo 2.0 measurement). The cells are incubated at 37° C. and 5% CO2 for 3 days.
(§3) On day 4, cell viability is assessed using CellTiter-Glo 2.0 and cell lysates are prepared for HBV DNA extraction and subsequent quantification by qPCR.
HBV DNA Quantification by qPCR
Medium is removed from each well and 100 μL of 0.33% NP-40 in H2O was added to each well. Plates are sealed, incubated at 4° C. for 5 mins, vortexed extensively and centrifuged briefly. Next, 35 μL of lysate is added to 65 μL QuickExtract DNA Extraction Solution (Epicentre) in a PCR plate for each well. PCR plate is incubated at 65° C. for 6 mins, 98° C. for 2 mins and finally cooled to 4° C. HBV DNA is then quantified by qPCR with HBV-specific primers and probes as specified in Table 3 using the Bio-Rad SSOAdvanced Universal Probes Supermix on a CFX96 machine (Bio-Rad). The PCR cycle program consisted of 95° C. for 3 mins, followed by 40 cycles at 95° C. for 10 sec and 60° C. for 30 sec.
A DNA standard is prepared by dilution of an IDT gBlock corresponding to the amplicon with concentrations ranging from 10^2 to 10^8 copies/input (i.e., per 4 μL) and used to generate a standard curve by plotting Cq values vs. HBV DNA standard concentration. The quantity of HBV DNA in each sample is determined by interpolating from the standard curve.
(§4) Cell viability is calculated as follows: % Cell viability=(luminescence value of test sample)/(average luminescence value of 2% DMSO control)×100%. HBV DNA inhibition was calculated as follows: 100−(HBV DNA copy number of test sample)/(average HBV DNA copy number of 2% DMSO control)×100%. No normalization to entecavir is required due to the excellent dynamic window of this assay. The CC50, EC50 and EC9o values were determined by dose-response curves fitted using non-linear regression.

[1] = Cell viability by CellTiter-Glo 2.0 (intracellular ATP content) in HepG2.117 cells; type: cell-based; settings: human, CellTiter-Glo 2.0, 3 days incubation
Description: as §1, §2, §3
Using the other plates, the cell viability is quantified by CellTiter-Glo 2.0 according to the manufacturer's manual. In brief, 100 μL of reagent solution is added to the culture plates and shaken for 2′. The plates are incubated at rt for 10 min and luminescence signal is subsequently measured on a VarioSkan Lux (ThermoFisher) plate reader.
as §4

Structure (SMILES): Cc1cc(C)n(-c2nc3c(c(=O)n2-c2ccc(NC[C@H](O)CO)nc2)C[C@@H](C)N(C(=O)c2ccc(Br)c(C(F)(F)F)c2)C3)n1 [Compound 31, (6R)-7-[4-bromo-3-(trifluoromethyl)benzoyl]-3-[6-[[(2S)-2,3-dihydroxypropyl]amino]-3-pyridyl]-2-(3,5-dimethylpyrazol-1-yl)-6-methyl-6,8-dihydro-5H-pyrido[3,4-d]pyrimidin-4-one]
- EC50 (HBV): 50 to 500 nM
- CC50 at 3 days [1]: > 500 nM

Structure (SMILES): Cc1cc(C)n(-c2nc3c(c(=O)n2-c2ccc4c(c2)ncn4CC(F)F)C[C@@H](C)N(C(=O)c2ccc(Br)c(C(F)(F)F)c2)C3)n1 [Compound 23, (6R)-7-[4-bromo-3-(trifluoromethyl)benzoyl]-3-[1-(2,2-difluoroethyl)benzimidazol-5-yl]-2-(3,5-dimethylpyrazol-1-yl)-6-methyl-6,8-dihydro-5H-pyrido[3,4-d]pyrimidin-4-one]
- EC50 (HBV): < 50 nM
- CC50 at 3 days [1]: > 500 nM

Structure (SMILES): Cc1cc(C)n(-c2nc3c(c(=O)n2-c2ccc(NC[C@H](C)O)nc2)C[C@@H](C)N(C(=O)c2ccc(Br)c(C(F)(F)F)c2)C3)n1 [Compound 29, (6R)-7-[4-bromo-3-(trifluoromethyl)benzoyl]-2-(3,5-dimethylpyrazol-1-yl)-3-[6-[[(2S)-2-hydroxypropyl]amino]-3-pyridyl]-6-methyl-6,8-dihydro-5H-pyrido[3,4-d]pyrimidin-4-one]
- EC50 (HBV): < 50 nM
- CC50 at 3 days [1]: > 500 nM

Structure (SMILES): Cc1cc(C)n(-c2nc3c(c(=O)n2-c2ccc(OC[C@H](C)O)cc2)C[C@@H](C)N(C(=O)c2ccc(Br)c(C(F)(F)F)c2)C3)n1 [Compound 15, (6R)-7-[4-bromo-3-(trifluoromethyl)benzoyl]-2-(3,5-dimethylpyrazol-1-yl)-3-[4-[(2S)-2-hydroxypropoxy]phenyl]-6-methyl-6,8-dihydro-5H-pyrido[3,4-d]pyrimidin-4-one]
- EC50 (HBV): < 50 nM
- CC50 at 3 days [1]: > 500 nM

Structure (SMILES): Cc1cc(C)n(-c2nc3c(c(=O)n2-c2ccc(N4CCN(C)CC4)nc2)C[C@@H](C)N(C(=O)c2ccc(Br)c(C(F)(F)F)c2)C3)n1 [Compound 11, (R)-7-(4-bromo-3-(trifluoromethyl)benzoyl)-2-(3,5-dimethyl-1H-pyrazol-1-yl)-6-methyl-3-(6-(4-methylpiperazin-1-yl)pyridin-3-yl)-5,6,7,8-tetrahydropyrido[3,4-d]pyrimidin-4(3H)-one]
- EC50 (HBV): < 50 nM
- CC50 at 3 days [1]: > 500 nM

Structure (SMILES): Cc1cc(C)n(-c2nc3c(c(=O)n2-c2ccc(OC[C@H](O)CO)cc2)C[C@@H](C)N(C(=O)c2ccc(Br)c(C(F)(F)F)c2)C3)n1 [Compound 7, (R)-7-(4-bromo-3-(trifluoromethyl)benzoyl)-3-(4-((R)-2,3-dihydroxypropoxy)phenyl)-2-(3,5-dimethyl-1H-pyrazol-1-yl)-6-methyl-5,6,7,8-tetrahydropyrido[3,4-d]pyrimidin-4(3H)-one]
- EC50 (HBV): < 50 nM
- CC50 at 3 days [1]: > 500 nM

Structure (SMILES): Cc1cc(C)n(-c2nc3c(c(=O)n2-c2ccc4c(ncn4C)n2)C[C@@H](C)N(C(=O)c2ccc(Br)c(C(F)(F)F)c2)C3)n1 [Compound 3, (R)-7-(4-bromo-3-(trifluoromethyl)benzoyl)-2-(3,5-dimethyl-1H-pyrazol-1-yl)-6-methyl-3-(1-methyl-1H-imidazo[4,5-b]pyridin-5-yl)-5,6,7,8-tetrahydropyrido[3,4-d]pyrimidin-4(3H)-one]
- EC50 (HBV): < 50 nM
- CC50 at 3 days [1]: > 500 nM

Structure (SMILES): Cc1cc(C)n(-c2nc3c(c(=O)n2-c2ccc4c(c2)ncn4C)C[C@@H](C)N(C(=O)c2ccc(Br)c(C(F)(F)F)c2)C3)n1 [Compound 1, (R)-7-(4-bromo-3-(trifluoromethyl)benzoyl)-2-(3,5-dimethyl-1H-pyrazol-1-yl)-6-methyl-3-(1-methyl-1H-benzo[d]imidazol-5-yl)-5,6,7,8-tetrahydropyrido[3,4-d]pyrimidin-4(3H)-one]
- EC50 (HBV): < 50 nM
- CC50 at 3 days [1]: > 500 nM

Structure (SMILES): Cc1cc(C)n(-c2nc3c(c(=O)n2-c2cc(F)c4ncn(C)c4c2)C[C@@H](C)N(C(=O)c2ccc(Br)c(C(F)(F)F)c2)C3)n1 [Compound 21, (6R)-7-[4-bromo-3-(trifluoromethyl)benzoyl]-2-(3,5-dimethylpyrazol-1-yl)-3-(7-fluoro-3-methyl-benzimidazol-5-yl)-6-methyl-6,8-dihydro-5H-pyrido[3,4-d]pyrimidin-4-one]
- EC50 (HBV): < 50 nM
- CC50 at 3 days [1]: > 500 nM

Structure (SMILES): Cc1cc(C)n(-c2nc3c(c(=O)n2-c2ccc(N4CCOCC4)nc2)C[C@@H](C)N(C(=O)c2ccc(Br)c(C(F)(F)F)c2)C3)n1 [Compound 27, (6R)-7-[4-bromo-3-(trifluoromethyl)benzoyl]-2-(3,5-dimethylpyrazol-1-yl)-6-methyl-3-(6-morpholino-3-pyridyl)-6,8-dihydro-5H-pyrido[3,4-d]pyrimidin-4-one]
- EC50 (HBV): < 50 nM
- CC50 at 3 days [1]: > 500 nM

Structure (SMILES): Cc1cc(C)n(-c2nc3c(c(=O)n2-c2ccc(N[C@H]4C[C@@H](O)C4)nc2)C[C@@H](C)N(C(=O)c2ccc(Br)c(C(F)(F)F)c2)C3)n1 [Compound 35, (R)-7-(4-bromo-3-(trifluoromethyl)benzoyl]-2-(3,5-dimethyl-1H-pyrazol-1-yl)-3-(6-(((1s,3S)-3-hydroxycyclobutyl)amino)pyridin-3-yl)-6-methyl-5,6,7,8-tetrahydropyrido[3,4-d]pyrimidin-4(3H)-one]
- EC50 (HBV): < 50 nM
- CC50 at 3 days [1]: > 500 nM

Structure (SMILES): Cc1cc(C)n(-c2nc3c(c(=O)n2-c2ccc(O[C@H]4C[C@@H](O)C4)cc2)C[C@@H](C)N(C(=O)c2ccc(Br)c(C(F)(F)F)c2)C3)n1 [Compound 37, (R)-7-(4-bromo-3-(trifluoromethyl)benzoyl)-2-(3,5-dimethyl-1H-pyrazol-1-yl)-3-(4-((1s,3S)-3-hydroxycyclobutoxy)phenyl)-6-methyl-5,6,7,8-tetrahydropyrido[3,4-d]pyrimidin-4(3H)-one]
- EC50 (HBV): < 50 nM
- CC50 at 3 days [1]: > 500 nM

Structure (SMILES): Cc1cc(C)n(-c2nc3c(c(=O)n2-c2cc(F)c4c(c2)ncn4C)C[C@@H](C)N(C(=O)c2ccc(Br)c(C(F)(F)F)c2)C3)n1 [Compound 22, (6R)-7-[4-bromo-3-(trifluoromethyl)benzoyl]-2-(3,5-dimethylpyrazol-1-yl)-3-(7-fluoro-1-methyl-benzimidazol-5-yl)-6-methyl-6,8-dihydro-5H-pyrido[3,4-d]pyrimidin-4-one]
- EC50 (HBV): < 50 nM
- CC50 at 3 days [1]: > 500 nM

Structure (SMILES): Cc1cc(C)n(-c2nc3c(c(=O)n2-c2cnc4c(ncn4C)n2)C[C@@H](C)N(C(=O)c2ccc(Br)c(C(F)(F)F)c2)C3)n1 [Compound 20, (6R)-7-[4-bromo-3-(trifluoromethyl)benzoyl]-2-(3,5-dimethylpyrazol-1-yl)-6-methyl-3-(1-methylimidazo[4,5-b]pyrazin-5-yl)-6,8-dihydro-5H-pyrido[3,4-d]pyrimidin-4-one]
- EC50 (HBV): < 50 nM
- CC50 at 3 days [1]: > 500 nM

Structure (SMILES): Cc1cc(C)n(-c2nc3c(c(=O)n2-c2ccc(OCC(N)=O)cc2)C[C@@H](C)N(C(=O)c2ccc(Br)c(C(F)(F)F)c2)C3)n1 [Compound 5, (R)-2-(4-(7-(4-bromo-3-(trifluoromethyl)benzoyl)-2-(3,5-dimethyl-1H-pyrazol-1-yl)-6-methyl-4-oxo-5,6,7,8-tetrahydropyrido[3,4-d]pyrimidin-3(4H)-yl)phenoxy)acetamide]
- EC50 (HBV): < 50 nM
- CC50 at 3 days [1]: > 500 nM

Structure (SMILES): Cc1cc(C)n(-c2nc3c(c(=O)n2-c2ccc(NC[C@@H](O)CO)nc2)C[C@@H](C)N(C(=O)c2ccc(Br)c(C(F)(F)F)c2)C3)n1 [Compound 30, (6R)-7-[4-bromo-3-(trifluoromethyl)benzoyl]-3-[6-[[(2R)-2,3-dihydroxypropyl]amino]-3-pyridyl]-2-(3,5-dimethylpyrazol-1-yl)-6-methyl-6,8-dihydro-5H-pyrido[3,4-d]pyrimidin-4-one]
- EC50 (HBV): 50 to 500 nM
- CC50 at 3 days [1]: > 500 nM
